Source: the NIST ThermoML archive (doi:10.1016/j.tca.2015.03.027)
± gives the expanded uncertainty stated by the source.

Tests used:
[1] = molar heat capacity at constant pressure; wn = mass fraction of the nth substance listed; settings: 320 K; 96 kPa; Liquid; Small sample (50 mg) DSC; w1 = 0.649
[2] = Crystal; DTA
[3] = Molar enthalpy of transition or fusion; settings: Crystal; DSC
[4] = molar heat capacity at constant pressure; settings: 290 K; 101.33 kPa; Crystal; Small sample (50 mg) DSC

Row | molar heat capacity at constant pressure [1] [J/K/mol] | Normal melting temperature [2] [°C] | Molar enthalpy of transition or fusion [3] [kcal/mol] | molar heat capacity at constant pressure [4] [J/K/mol] | Compound
1 | 75.67 ± 7.5 | – | – | – | [Br-].[Br-].[Ca+2] [calcium bromide] + O
2 | – | 34.00 ± 2 | 10.5 ± 0.335 | 363.41 ± 37 | O.O.O.O.O.O.[Br-].[Br-].[Ca+2] [calcium bromide hexahydrate]
